This experiment concerns A375 multi-cell spheroids with HUVEC/MSC, viability. The experiment in a line: Anticancer human tumor A375 cell line growth inhibition [GQUAD].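 For all read-outs here: spheroids exposed to compounds for seven days before readout.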 The settings on record: for viability, T/C: stronger effect = lower value. From the text: DNA G-quadruplex Stabilizer Agents in Combinations in Complex Spheroids
A high-throughput screen of multi-cell type tumor spheroids was designed to identify active combinations of DNA G-quadruplex stabilizer agents and targeted small molecules. Complex spheroids include a stromal component modeled by human endothelial cells (HUVEC) and fibroblasts modeled by human mesenchymal stem cells (MSCs). The concentration ranges selected for each drug and investigational agent were based upon clinically achievable concentrations if the clinical Cmax of the agent was known.
Compounds. The drugs and investigational agents: pidnarulex (CX-5461; NSC782164), APTO-253 (NSC789042), BRACO-19 (NSC847499), peposertib (NSC802822), ceralasertib (NSC780249), elimusertib (NSC800525), camonsertib (NSC841442), AZD-1390 (NSC803789), olaparib (NSC753686), talazoparib (NSC767125), ART-558 (NSC835418), sotorasib (NSC818433), MRTX-1133 (NSC836407), SN-38 (NSC673596), topotecan (NSC609699), etoposide (NSC141540), doxorubicin (NSC123127), gemcitabine (NSC613327), 5-fluorouracil (NSC19893), paclitaxel (NSC125973), vemurafenib (NSC761431), panobinostat (NSC761190), R-306465 (JNJ-16241199; NSC773264), adavosertib (NSC754352), TP-3654 (NSC805149), carboplatin (NSC241240), KSQ-4279 (NSC840948), and staurosporine (NSC755774) were obtained from the National Cancer Institute (NCI) Developmental Therapeutics Program Chemical Repository (34). The FDA-approved anticancer drug set is available from the NCI Developmental Therapeutics Program. […] The stock solutions were prepared in dimethyl sulfoxide (DMSO, Sigma-Aldrich, St. Louis, MO, cat. D2650) at 800-fold the tested concentration and stored at -70 degrees C prior to their use. All drugs and investigational agents were tested over a range starting from a high concentration at or near the clinical Cmax and decreasing in half-log increments. If the clinical Cmax for an agent had not been determined, the highest concentration tested was 10 microM.
2.3 Cell Culture. All cells were maintained in an incubator at 37 degrees C and 5% CO2 with 95% humidity. The PDC lines were cultured according to standard operating procedures established by the NCI PDMR. All PDCs were thawed and cultured in Matrigel-coated flasks prepared with a working solution of 1X Ham's F-12 nutrient mix, without supplementation (Invitrogen, cat. 11765054), 100 U/mL penicillin-streptomycin (Invitrogen, cat. 15140122), and 2.5% Matrigel (Corning Inc., cat. 354248) for the first three passages. The 857933-349-R-J2-PDC line was cultured in 6C/Colon 1B media, which includes advanced DMEM/F-12 (Thermo Fisher Scientific, cat. 12634028), 10 mM HEPES (Thermo Fisher Scientific, cat. 15630080), 1X GlutaMAX supplement (Thermo Fisher Scientific, cat. 35050061), 0.1 mg/mL primocin (InvivoGen, cat. ant-pm-2), 10% defined fetal bovine serum, heat inactivated (HyClone Laboratories Inc., cat. SH30070.03HI), 50% L-WRN conditioned media (ATCC, cat. CRL-3276), 1.25 mM N-Acetyl-L-cysteine (Sigma-Aldrich, cat. A9165), 10 mM nicotinamide (Sigma-Aldrich, cat. N0636), 1X B-27 supplement (Thermo Fisher Scientific, cat. 17504044), 1X N-2 supplement (Thermo Fisher Scientific, cat. 17502048), 10 microM Y-27632 dihydrochloride (Tocris Bioscience, cat. 1254), and 50 ng/mL human EGF recombinant protein (Thermo Fisher Scientific, cat. PHG0311). The 485176-168-R4-J1-PDC line was cultured in Panc media, which includes all 6C/Colon 1B media components plus 100 ng/mL human FGF-10 (Thermo Fisher Scientific, cat. 100-26), 500 nM SB-431542 (Selleckchem, cat. S1067), and gastrin (Tocris, cat. 3006).
[…]

[1] abbreviates: curve of first compound, second compound 0.0316 µM.
Where [2] appears, read: curve of first compound, second compound 0.1 µM.
The mark [3] stands for this setting: curve of first compound, second compound 0.316 µM.
The mark [4] stands for this setting: curve of first compound, second compound 1 µM.
[5] abbreviates: curve of first compound, second compound 3.16 µM.
Where [6] appears, read: curve of first compound, second compound 10 µM.
Setting [7] is: second compound 0.0316 µM, first compound 0.0316 µM.
[8] abbreviates: second compound 0.0316 µM, first compound 0.316 µM.
The mark [9] stands for this setting: second compound 0.1 µM, first compound 0.0316 µM.
[10] abbreviates: second compound 0.1 µM, first compound 0.316 µM.
The mark [11] stands for this setting: second compound 0.316 µM, first compound 0.0316 µM.
[12] abbreviates: second compound 0.316 µM, first compound 0.316 µM.
Setting [13] is: second compound 1 µM, first compound 0.0316 µM.
[14] abbreviates: second compound 1 µM, first compound 0.316 µM.
The mark [15] stands for this setting: second compound 3.16 µM, first compound 0.0316 µM.
[16] abbreviates: second compound 3.16 µM, first compound 0.316 µM.
[17] abbreviates: second compound 10 µM, first compound 0.0316 µM.
[18] abbreviates: second compound 10 µM, first compound 0.316 µM.

Values joined by “and” are separate entries in the source; they are usually repeats but may differ in a detail not shown here. Equal entries are not always repeated.

For `Cn1ncnc1[C@H]1c2n[nH]c(=O)c3cc(F)cc(c23)N[C@@H]1c1ccc(F)cc1` + Cc1[nH]c2ccc(F)cc2c1-c1nc2c3cccnc3c3ncccc3c2[nH]1, the IC50 reads like this: under setting [1], more than 316 nM; under setting [2], more than 316 nM; under setting [3], more than 316 nM; under setting [4], more than 316 nM; under setting [5], more than 316 nM; under setting [6], more than 316 nM. Moreover, the viability, T/C is 106% (second compound 0.0316 µM, first compound 0.000999 µM); 98.1% (second compound 0.0316 µM, first compound 0.00316 µM); 108% (second compound 0.0316 µM, first compound 0.00999 µM); 106% under setting [7]; 104% (second compound 0.0316 µM, first compound 0.0999 µM); 97.4% under setting [8]. Also, the viability, T/C runs as follows: (second compound 0.1 µM, first compound 0.000999 µM) 96.3%; (second compound 0.1 µM, first compound 0.00316 µM) 97.5%; (second compound 0.1 µM, first compound 0.00999 µM) 102%; under setting [9], 103%; (second compound 0.1 µM, first compound 0.0999 µM) 125%; under setting [10], 114%. The viability, T/C reads like this: (second compound 0.316 µM, first compound 0.000999 µM) 108%; (second compound 0.316 µM, first compound 0.00316 µM) 105%; (second compound 0.316 µM, first compound 0.00999 µM) 106%; under setting [11], 112%; (second compound 0.316 µM, first compound 0.0999 µM) 131%; under setting [12], 121%. Moreover, the viability, T/C (second compound 1 µM, first compound 0.000999 µM) is 100%; the viability, T/C (second compound 1 µM, first compound 0.00316 µM) was 98%; the viability, T/C (second compound 1 µM, first compound 0.00999 µM) was 115%; the viability, T/C under setting [13] is 137%; the viability, T/C (second compound 1 µM, first compound 0.0999 µM) is 138%; the viability, T/C under setting [14] is 116%. Moreover, the viability, T/C (second compound 3.16 µM, first compound 0.000999 µM) is 83.7%; the viability, T/C (second compound 3.16 µM, first compound 0.00316 µM) was 93.6%; the viability, T/C (second compound 3.16 µM, first compound 0.00999 µM) is 92.3%; the viability, T/C under setting [15] was 78.3%; the viability, T/C (second compound 3.16 µM, first compound 0.0999 µM) was 80.7%; the viability, T/C under setting [16] was 72%. Besides, the viability, T/C was 106% (second compound 10 µM, first compound 0.000999 µM); 95.7% (second compound 10 µM, first compound 0.00316 µM); 112% (second compound 10 µM, first compound 0.00999 µM); 101% under setting [17]; 96.8% (second compound 10 µM, first compound 0.0999 µM); 90.9% under setting [18].
Consider `CC1COCCN1c1cc(C2(S(C)(=N)=O)CC2)nc(-c2ccnc3[nH]ccc23)n1` (stereo not given), for which the viability, T/C by setting is: (compound 0.0316 µM) 103% and 102%; (compound 0.1 µM) 97.6% and 102%; (compound 0.316 µM) 104% and 98.5%; (compound 1 µM) 109% and 103%; (compound 3.16 µM) 54.7% and 63.4%; (compound 10 µM) 42.4% and 36.1%. Where the note is “curve of compound”, the IC50 is 4900 nM and 5560 nM.
Take `O=C(NO)c1cnc(N2CCN(S(=O)(=O)c3ccc4ccccc4c3)CC2)nc1` + Cc1cnc(CNC(=O)c2c(=O)c3ccc(N4CCCN(C)CC4)nc3n3c2sc2ccccc23)cn1: the IC50 runs as follows: under setting [1], 210 nM; under setting [2], 124 nM; under setting [3], 109 nM; under setting [4], less than 31.6 nM; under setting [5], less than 31.6 nM; under setting [6], less than 31.6 nM. Besides, the viability, T/C under setting [7] is 115%; the viability, T/C (second compound 0.0316 µM, first compound 0.1 µM) is 124%; the viability, T/C under setting [8] was 11.9%; the viability, T/C (second compound 0.0316 µM, first compound 1 µM) was 0.22%; the viability, T/C (second compound 0.0316 µM, first compound 3.16 µM) is 0.16%; the viability, T/C (second compound 0.0316 µM, first compound 10 µM) was 0.19%. Besides, the viability, T/C by setting is: under setting [9], 75.2%; (second compound 0.1 µM, first compound 0.1 µM) 59.1%; under setting [10], 10.8%; (second compound 0.1 µM, first compound 1 µM) 0.18%; (second compound 0.1 µM, first compound 3.16 µM) 0.13%; (second compound 0.1 µM, first compound 10 µM) 0.17%. Besides, the viability, T/C is 64.1% under setting [11]; 53.2% (second compound 0.316 µM, first compound 0.1 µM); 9.31% under setting [12]; 0.13% (second compound 0.316 µM, first compound 1 µM); 0.11% (second compound 0.316 µM, first compound 3.16 µM); 0.14% (second compound 0.316 µM, first compound 10 µM). Besides, the viability, T/C by setting is: under setting [13], 44.6%; (second compound 1 µM, first compound 0.1 µM) 36.8%; under setting [14], 0.9%; (second compound 1 µM, first compound 1 µM) 0.11%; (second compound 1 µM, first compound 3.16 µM) 0.09%; (second compound 1 µM, first compound 10 µM) 0.12%. Besides, the viability, T/C under setting [15] is 32.8%; the viability, T/C (second compound 3.16 µM, first compound 0.1 µM) was 23.3%; the viability, T/C under setting [16] is 0.17%; the viability, T/C (second compound 3.16 µM, first compound 1 µM) is 0.11%; the viability, T/C (second compound 3.16 µM, first compound 3.16 µM) was 0.11%; the viability, T/C (second compound 3.16 µM, first compound 10 µM) was 0.15%. Also, the viability, T/C runs as follows: under setting [17], 28.5%; (second compound 10 µM, first compound 0.1 µM) 22.6%; under setting [18], 0.2%; (second compound 10 µM, first compound 1 µM) 0.12%; (second compound 10 µM, first compound 3.16 µM) 0.18%; (second compound 10 µM, first compound 10 µM) 0.21%.
With `C=CC(=O)N1CCN(c2nc(=O)n(-c3c(C)ccnc3C(C)C)c3nc(-c4c(O)cccc4F)c(F)cc23)C(C)C1` (stereo not given), the viability, T/C (compound 0.0316 µM) was 94.3% and 100% and 93.8%; the viability, T/C (compound 0.1 µM) was 105% and 91.8% and 94.4%; the viability, T/C (compound 0.316 µM) was 95.2% and 94.2% and 99%; the viability, T/C (compound 1 µM) is 101% and 90.2% and 99.8%; the viability, T/C (compound 3.16 µM) is 109% and 99.3% and 126%; the viability, T/C (compound 10 µM) was 101% and 119% and 111%. The IC50 (curve of compound) was more than 10000 nM.
Take `C#Cc1c(F)ccc2cc(O)cc(-c3ncc4c(N5CC6CCC(C5)N6)nc(OCC56CCCN5CC(F)C6)nc4c3F)c12` (stereo not given): the viability, T/C reads like this: (compound 0.0316 µM) 103% and 97.8% and 101%; (compound 0.1 µM) 96% and 106% and 96.2%; (compound 0.316 µM) 97.2% and 96.2% and 108%; (compound 1 µM) 101% and 117% (2×); (compound 3.16 µM) 113% and 106% and 101%; (compound 10 µM) 90.4% and 98.4% and 113%. The IC50 (curve of compound) was more than 10000 nM.

The term IC50 denotes the midpoint of a concentration-inhibition curve. As usually defined, the viability, T/C is the result in the treated group divided by that in the control group, in per cent.

The values are drawn from PubChem BioAssay AID2060485 (Molecular Pharmacology Branch, DTP, NCI, 2025).
